Results from patent US9980937B2, “Therapeutic agent for Alzheimer's disease” (NAGASAKI UNIVERSITY, priority 2014, dated 2018).
Values belong to the compound of their own block, whether it stands above or below them.

Legend:
neprilysin [1] = assay: neprilysin-dependent neutral endopeptidase activity of APP-H4 cell extract (suc-AAF-AMC coupled enzyme assay); type: cell-based, human; conditions: APP-H4 cells, 48 hr, 1 or 10 μM; activity without polyphenol derivative = 1 (FIG. 1)
Description: (§1) APP-H4 cells were seeded to a 6-well plate at a density of 12×10^4 cells/1.5 mL, and cultured in Dulbecco's modified Eagle's medium (DMEM; Nacalai Tesque, Inc.) added with 10% fetal bovine serum (FBS; Equitech-Bio, Inc. [Kerrville, Tex., USA]), 100 U/mL penicillin+100 μg/mL streptomycin (Nacalai Tesque, Inc.). After culture for 24 hr, the culture supernatant was removed, and the medium was exchanged with a medium with reduced use amount of serum, Opti-MEM (registered trade mark) I Reduced Serum Medium (Life Technologies Corporation, Carlsbad, Calif., USA) (1 mL). A polyphenol derivative (1 μL) to be the test target was added, and the mixture was further cultured for 48 hr. After culture, the culture supernatant was recovered in a tube (total amount 1.5 mL), centrifuged at 4,000×g/4° C./10 min to remove dead cells, and the supernatant (800 μL) was placed in a new tube. The culture supernatant was preserved at −80° C. before sample preparation. The cells were washed twice with ice-cooled phosphate-buffered saline (PBS). Thereafter, the cells were scraped from the plate using a Cell Scraper. The cells were recovered in a 1.5 mL tube and centrifuged at 4,000×g/4° C./10 min. The supernatant was removed and the cells were preserved at −80° C. before sample preparation. The frozen cells were lysed in 40 μL of solubilization buffer containing 1% Triton X-100, protease inhibitor cocktail Complete™ EDTA-free (Roche) and 50 mM Tris-HCl on ice. The cell lysate was incubated on ice for 60 min, centrifuged at 4° C., 21,900×g for 30 min, and the supernatant was recovered and used as a solubilization cell extract.
The total protein concentration of the cell extract was determined by a BCA protein assay kit (Takara) by using BSA as the standard solution. The final concentration of the test compound used was 1 μM or 10 μM, and quantification was performed using each solvent as a control.
The neprilysin-dependent neutral endopeptidase activity of the cell extract was measured fluorescence quantitatively by an indirect coupled enzyme assay method. […] Total 50 μL of the reaction mixture was prepared such that the final concentration was substrate 0.1 mM suc-AAF-AMC, protein in the cell extract 1-6 μg, 100 mM MES buffer (pH 6.5). With the time of addition of the substrate as the start of the reaction, the mixture was reacted at 37° C. for 1 hr, and Phe-AMC was cut out from the substrate by neutral endopeptidase. […] The mixture was reacted at 37° C. for 30 min, and Phe (phenylalanine) residue was cut out from Phe-AMC by aminopeptidase.

neprilysin [2] = assay: neprilysin expression amount at protein level (western blot, APP-H4 cells); type: cell-based, human; conditions: 48 hr, standardized to β-actin (FIG. 2)
Description: as §1
The aforementioned cell extract was mixed with 6×SDS-polyacrylamide gel electrophoresis (SDS-PAGE) sample buffer (Nacalai Tesque, Inc.) at a ratio of 5:1, boiled for 5 min, and used as a detection sample of neprilysin, α-secretase and β-secretase proteins.
The PVDF membrane after transfer was washed with a wash buffer and immersed in a blocking buffer to prevent non-specific binding of the primary antibody, and a blocking reaction was performed at room temperature for 1 hr. […] The PVDF membrane after the reaction was washed with the wash buffer and the secondary antibody (horseradish peroxidase conjugated anti-mouse or anti-rabbit IgG (1:10,000; GE Healthcare UK Ltd.)) corresponding to the primary antibody was reacted at room temperature for 1 hr and detection was carried out using the ECL Select Western Blotting Detection Kit (GE Healthcare UK Ltd.).
The signal intensity of the band was quantified using a densitometer LAS-4000 (GE Healthcare UK Ltd.) and image analysis software Science Laboratory 2003 Image Gauge Version 4.23 (Fujifilm Holdings Corporation, Tokyo, Japan).

APP = assay: extracellularly secreted APPsα/APPsβ ratio (western blot); type: cell-based, human; conditions: APP-H4 culture supernatant (FIG. 2)
Description: as §1
(§2) After thawing from −80° C., the aforementioned culture supernatant was mixed with 6×SDS-polyacrylamide gel electrophoresis (SDS-PAGE) sample buffer (Nacalai Tesque, Inc.) at a ratio of 5:1, boiled for 5 min, and used as a detection sample of APPsα which is a metabolite of APP by α-secretase and APPsβ which is a metabolite of APP by β-secretase in western blot analysis.
The PVDF membrane after transfer was washed with a wash buffer and immersed in a blocking buffer to prevent non-specific binding of the primary antibody, and a blocking reaction was performed at room temperature for 1 hr. Thereafter, it was reacted with a primary antibody (APPsα, anti-human APPsα mouse monoclonal antibody (2B3, Immuno-Biological Laboratories Co., Ltd., Gunma, Japan) (3 μg/mL); APPsβ, anti-APPsβ, rabbit polyclonal antibody, 1 μg/mL) to perform an antigen-antibody-reaction at 4° C. for not less than 16 hr. […]
(§3) The signal intensity of the band was quantified using a densitometer LAS-4000 (GE Healthcare UK Ltd.) and image analysis software Science Laboratory 2003 Image Gauge Version 4.23 (Fujifilm Holdings Corporation, Tokyo, Japan). […]

β-secretase = molecular target: T1, β-secretase (Homo sapiens, UniProt P56817); assay: β-secretase activity (APPsβ, western blot); type: cell-based; conditions: APP-H4 culture supernatant, APPsβ (FIG. 2)
T1 construct: endogenous in cells; host or cells: APP-H4 cells (culture supernatant analysed)
T1 sequence (P56817 46-501): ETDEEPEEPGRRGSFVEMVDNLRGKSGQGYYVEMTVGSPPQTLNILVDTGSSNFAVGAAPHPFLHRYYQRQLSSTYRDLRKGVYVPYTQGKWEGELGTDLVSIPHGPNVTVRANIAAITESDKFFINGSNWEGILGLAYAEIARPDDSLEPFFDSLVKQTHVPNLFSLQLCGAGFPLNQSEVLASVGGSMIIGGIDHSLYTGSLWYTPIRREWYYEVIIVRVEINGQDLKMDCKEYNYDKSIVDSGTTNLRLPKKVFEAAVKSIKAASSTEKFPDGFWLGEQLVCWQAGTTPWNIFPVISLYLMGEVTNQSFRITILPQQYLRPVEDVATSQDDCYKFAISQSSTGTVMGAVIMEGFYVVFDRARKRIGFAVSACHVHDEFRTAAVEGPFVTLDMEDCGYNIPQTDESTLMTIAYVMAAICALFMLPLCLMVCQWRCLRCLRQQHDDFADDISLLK
Description: as §1, with “extract. […]” for “extract.”
as §3

ADAM17 = assay: α-secretase mRNA expression, ADAM17 (real-time PCR); type: cell-based, human; conditions: control = 1
Description: (§4) In the same manner as in the above-mentioned 2, total RNA was prepared using a High Pure RNA Isolation kit (Roche 11828665001) from the cells to be the test target cells, which were treated with each polyphenol derivative and cultured, and subjected to a reverse transcription reaction using PrimeScript RT-PCR kit (TaKaRaRR014A) to give a sample (cDNA) for real-time PCR.
(§5) The prepared sample, Premix Ex taq (Perfect Real Time) (TaKaRaRR039A) and a probe, and a primer were mixed in a tube (TaKaRa SC910A), and real-time PCR reaction (initial denaturation: 95° C. 30 sec, PCR reaction: 95° C. 5 sec, 60° C. 20 sec, 40 times) was performed by Smart Cycler II System machine (TaKaRa).
(§6) The 5′-terminus of the probe was modified by a fluorescent substance FAM, and the 3′-terminus was modified by a quencher substance TAMRA, respectively.

[3] = coefficient of partition for octanol, in accordance with Fudouji et al. 2009; cited from earlier work
[4] = tested on: neprilysin mRNA (MME gene); assay: neprilysin mRNA expression (quantitative real-time PCR, MME gene); type: cell-based, human; conditions: standardized to GAPDH mRNA (FIG. 3)
Description: as §4, §5, §6

[5] = tested on: neprilysin, α-secretase, β-secretase; assay: overall conclusion on modulation of neprilysin, α-secretase and β-secretase (Example 1); type: cell-based, human; conditions: conclusion from the results of Example 1
Description: as §1
The neprilysin-dependent neutral endopeptidase activity of the cell extract was measured fluorescence quantitatively by an indirect coupled enzyme assay method. As a neutral endopeptidase substrate, succinyl-Ala-Ala-Phe-7-amino-4-methylcoumarin (suc-AAF-AMC) (1-1315; Bachem) was used. Total 50 μL of the reaction mixture was prepared such that the final concentration was substrate 0.1 mM suc-AAF-AMC, protein in the cell extract 1-6 μg, 100 mM MES buffer (pH 6.5). With the time of addition of the substrate as the start of the reaction, the mixture was reacted at 37° C. for 1 hr, and Phe-AMC was cut out from the substrate by neutral endopeptidase. Then, to the reaction mixture was added a solution (2.5 μL) containing 0.1 mg (0.4 unit equivalent)/mL leucine aminopeptidase (L-5006; Sigma-Aldrich), and 0.2 mM phosphoramidon (4082; Peptide Institute). The mixture was reacted at 37° C. for 30 min, and Phe (phenylalanine) residue was cut out from Phe-AMC by aminopeptidase. Using microplate spectrometer Infinite M-1000 (Tecan), the fluorescence intensity of free AMC was measured by measuring at an excitation wavelength 390 nm and a fluorescence wavelength 460 nm on a half-well size 96-well black plate (#3695; Corning). The neprilysin-dependent neutral endopeptidase activity was determined based on a decrease in the activity due to 10 μM thiorphan (T-6031; Sigma-Aldrich) as a neprilysin specific inhibitor.
as §2, with “analysis. […]” for “analysis.”

Compound: C=CCc1ccc(O)c(-c2ccc(O)c(CC=C)c2)c1 [Honokiol]
neprilysin activity potentiating action (neprilysin [1]): about 1.3 times that of control

β-secretase activity, remaining relative to control (β-secretase): about 41 % that of control
modulator class (neprilysin / α-secretase / β-secretase) [5]: double modulator
Compound: CC1CCC2C(C1)c1c(c3c(c4c1OC(C)(C)C1CCC(C)CC41)O[C@H](c1cc(O)c(O)c(O)c1)[C@H](OC(=O)c1cc(O)c(O)c(O)c1)C3)OC2(C)C (some centres unmarked) [NUP-11]
expression amount of neprilysin at the protein level (neprilysin [2]): about 3.3 times that of control
extracellularly secreted APPsα/APPsβ ratio (APP): about 2.0 times that of control
ADAM17 expression at the mRNA level (ADAM17): about 2.4 times that of control
log P octanol [3]: >10
expression level of neprilysin at the mRNA level [4]: about 4 times that of control
neprilysin activity potentiating action (neprilysin [1]): about 3.5 times that of control

modulator class (neprilysin / α-secretase / β-secretase) [5]: triple modulator
Compound: O=C(O)CCCCCCCCCCCCCCOC1CCc2c(c3c(c4c2O[C@H](c2cc(O)c(O)c(O)c2)[C@H](OC(=O)c2cc(O)c(O)c(O)c2)C4)OC(OCCCCCCCCCCCCCCC(=O)O)CC3)O1 (some centres unmarked) [NUP-E15-2]
ADAM17 expression at the mRNA level (ADAM17): about 3.7 times that of control
expression level of neprilysin at the mRNA level [4]: about 7.9 times that of control
neprilysin activity potentiating action (neprilysin [1]): about 1.5 times that of control

Compound: O=c1c(O)c(-c2ccc(O)cc2)oc2cc(O)cc(O)c12 [Kaempferol]
neprilysin activity potentiating action (neprilysin [1]): about 1.5 times that of control

Compound: O=c1cc(-c2ccccc2)oc2cc(O)cc(O)c12 [Chrysin]
neprilysin activity potentiating action (neprilysin [1]): about 1.4 times that of control

β-secretase activity, remaining relative to control (β-secretase): about 37 % that of control
modulator class (neprilysin / α-secretase / β-secretase) [5]: double modulator
Compound: C/C(=C\Cc1c(O)cc2c(c1O)C[C@@H](OC(=O)c1cc(O)c(O)c(O)c1)[C@@H](c1cc(O)c(O)c(O)c1)O2)CCCC(C)CCCC(C)CCCC(C)C (some centres unmarked) [NUP-19]
expression amount of neprilysin at the protein level (neprilysin [2]): about 3.2 times that of control
extracellularly secreted APPsα/APPsβ ratio (APP): about 1.4 times that of control
ADAM17 expression at the mRNA level (ADAM17): about 1.3 times that of control
log P octanol [3]: >10
expression level of neprilysin at the mRNA level [4]: about 2.1 times that of control
neprilysin activity potentiating action (neprilysin [1]): about 2.7 times that of control

Compound: Amentoflavone
neprilysin activity potentiating action (neprilysin [1]): about 2 times that of control

Compound: O=c1cc(-c2ccc(O)cc2)oc2cc(O)cc(O)c12 [Apigenin]
neprilysin activity potentiating action (neprilysin [1]): about 1.5 times that of control

Compound: O=c1cc(-c2ccccc2)oc2cc(O)c(O)c(O)c12 [Baicalein]
neprilysin activity potentiating action (neprilysin [1]): about 1.7 times that of control

Compound: CC12CC[C@@H](C(C)(C)O)[C@H](C1)c1c(cc(O)c3c1O[C@H](c1cc(O)c(O)c(O)c1)[C@H](OC(=O)c1cc(O)c(O)c(O)c1)C3)O2 [NUP-6]
log P octanol [3]: 1.85

Compound: O=C(O[C@@H]1Cc2c(O)cc(O)cc2O[C@@H]1c1cc(O)c(O)c(O)c1)c1cc(O)c(O)c(O)c1 [EGCg, (−)-epigallocatechin-3-O-gallate, reference compound]
log P octanol [3]: 1.00
neprilysin activity potentiating action (neprilysin [1]): about 1.5 times that of control
